Assay results from patent US20220323443A1, “COMBINATION THERAPY FOR CANCER TREATMENT” (TAKEDA PHARMACEUTICAL COMPANY LIMITED, priority 2019, published 2022).
Like-named read-outs stand apart in the source and are kept apart here.

Columns and labels:
[1] = test system: SW48 cancer cells; experiment: In vitro combination study with Compound 1, Cell Titer-Glo (ATP) cell viability, 72 h; assay type: cell-based
[2] = test system: H460 cancer cells; experiment: as above; assay type: cell-based;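 note: Ten-by-ten dose matrices of both drugs alongside single-agent dilutions, luminescence read 72 hours after compound addition, percent activity per well versus vehicle (DMSO) plate controls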
Protocol: (§2) Each combination pair was evaluated in an individual 384-well plate which contained variable doses of both compounds as single agents, as well as two, ten-by-ten matrices (in duplicate) that contained mixtures of the two test compounds. In brief, compounds were added to the cell test plates 16 hours after cell plating and then assessed for viability 72 hours later. Continuous cultures of tumor cells were maintained under standard cell culturing conditions (i.e. in a humidified chamber set at 37° C., containing atmosphere 5% carbon dioxide). […] Seventy-two hours after compound addition, ATP levels were measured to assess cell viability. Plating densities were chosen to ensure optimal linear growth over the 72 hour period.
(§3) Compound dilution and compound delivery to the assay plates were done on HighRes Robotic System (HighRes Biosolutions, Woburn, Mass., USA) with Echo™ Liquid Handler (Labcyte, Sunnyvale, Calif., USA). […] Next, these were used for compound transfer into cell assay plates. All wells were back-filled to give a constant percentage of DMSO.
(§4) The final DMSO concentration was held constant in all wells across the plate and was maintained at less than 0.5%. […] Cells treated with vehicle (DMSO) in two rows, or single compound serial dilutions in one plate columns/row served as the untreated control and single compound controls, respectively.
(§5) Compound activity in A549, COLO205, H460, HCT116, SW48, SW620 cancer cell lines was assessed using Cell Titer-Glo® (Promega [Madison, Wis., USA]). After 72 hours incubation, the plates were treated as per package insert protocol for the Promega Luminescence ATP Detection Systems. Briefly, 25 μL of cell lysis/substrate solution (provided in kit form) was added to each well and the plate was incubated at room temperature for 10 minutes. Luminescence was measured using a PHERAstar multi-label counter (BMG Labtech [Ortenberg, Germany]) or LEADseeker (GE Healthcare Life Sciences [Piscataway, N.J., USA]).
(§6) Numerical luminescence values were analyzed to generate EC50 curves and evaluate synergy. Raw Data reader files were uploaded along with automation workfiles that defined the plate and well contents. Percent activities were calculated for each well versus plate controls.
(§7) Each plate representing a single drug combination was analyzed separately. First, the viability measurements were normalized by scaling the data so that the median of the negative controls was 0 and the median of the positive controls was 100.
(§8) For the combination analysis, a response surface model was used to describe the relationship between the normalized viability and the drug concentrations. The data were fit to the model by minimizing the residual sum of squares. Based on the fitted response surface, plots of constant viability, called isobolograms, were produced.
(§9) The Combination Index and Nonlinear Blending were used as measures of drug synergy. To calculate Combination Index the 50% isobologram (which is the dose contour that has 50% viability) was used. […] A standard procedure was created to produce a call in order to characterize the viability effects for each combination (synergy, additivity, subadditivity, or antagonism). If the Combination Index existed then these measures were used to make the call.

[3] = test system: COLO205 cancer cells; experiment: as above; assay type: cell-based, human;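 note: Ten-by-ten dose matrices of both agents in duplicate plus single-agent dilutions, luminescent ATP read-out, percent activity per well relative to DMSO vehicle wells, synergy call from these matrices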
[4] = test system: A549 cancer cells; experiment: as above; assay type: cell-based;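 note: Ten-by-ten dose matrices of the two agents in duplicate, compounds added 16 h post-plating, activity relative to DMSO vehicle wells, call reflects synergy evaluation from luminescence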
Protocol: as §2, §3, §4, §5, §6, §7, §8, §9

[5] = test system: HCT116 cancer cells; experiment: as above; assay type: cell-based;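 note: combination call from 10×10 dose matrices in duplicate, graded by synergy, with percent activity per well relative to DMSO vehicle controls on the same plate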
[6] = test system: SW620 cancer cells; experiment: as above; assay type: cell-based;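 note: Ten-by-ten dose matrices of both drugs in 384-well plates, luminescent ATP read-out, synergy evaluated against single-agent and DMSO vehicle controls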
[7] = test system: CALU6 (Lung); experiment: In vitro combination study for selected compounds, additional cell lines; assay type: cell-based; settings: drug combined with Compound 1
Protocol: (§1) In vitro anti-proliferative effects of selected compounds were tested in additional cell lines, including ovarian cancer (SKOV3) and pancreatic cancer (MIA-PACA-2) cell lines.

[8] = test system: H-1650 (Lung); experiment: as above; assay type: cell-based; settings: drug combined with Compound 1
Protocol: as §1

[9] = Table 5 drug combined with Compound 1, 72 h
[10] = DNA damaging agent combined with Compound 1, 72 h

| SMILES | Call, anti-proliferative effect of combination with Compound 1, H460 [2, 10] | Call, anti-proliferative effect of combination with Compound 1, COLO205 [3, 10] | Call, anti-proliferative effect of combination with Compound 1, A549 [4, 10] | Call, anti-proliferative effect of combination with Compound 1, HCT116 [5, 10] | Call, anti-proliferative effect of combination with Compound 1, SW620 [6, 10] | Call, anti-proliferative effect of combination with Compound 1, SW48 [1, 10] | Call, anti-proliferative effect of combination with Compound 1, A549 [4] | also measured |
| --- | --- | --- | --- | --- | --- | --- | --- | --- |
| Nc1ccccc1NC(=O)c1ccc(CNC(=O)OCc2cccnc2)cc1 [Entinostat] | – | – | – | – | – | – | – | Call, anti-proliferative effect of combination with Compound 1, SW48 [1, 9]: Subadditivity (1.3 to 2); Call, anti-proliferative effect of combination with Compound 1, H460 [2, 9]: Synergy (0 to 0.7); Call, anti-proliferative effect of combination with Compound 1, COLO205 [3, 9]: Subadditivity (1.3 to 2); Call, anti-proliferative effect of combination with Compound 1, A549 [4, 9]: Synergy (0 to 0.7); Call, anti-proliferative effect of combination with Compound 1, HCT116 [5, 9]: Additivity (0.7 to 1.3); Call, anti-proliferative effect of combination with Compound 1, SW620 [6, 9]: Synergy (0 to 0.7) |
| Nc1ccn([C@@H]2O[C@H](CO)[C@@H](O)[C@@H]2O)c(=O)n1 [Cytarabine] | Additivity (0.7 to 1.3) | Synergy (0 to 0.7) | Additivity (0.7 to 1.3) | Additivity (0.7 to 1.3) | Synergy (0 to 0.7) | – | – | – |
| CC(=O)O[C@H]1C(=O)[C@@]2(C)[C@H]([C@H](OC(=O)c3ccccc3)[C@]3(O)C[C@H](OC(=O)[C@H](O)[C@@H](NC(=O)c4ccccc4)c4ccccc4)C(C)=C1C3(C)C)[C@]1(OC(C)=O)CO[C@@H]1C[C@@H]2O [Paclitaxel] | – | – | – | – | – | – | – | In vitro combination effect with Compound 1, Lung CALU6 [7]: Additive; In vitro combination effect with Compound 1, Lung H-1650 [8]: Antagonism |
| S=P(N1CC1)(N1CC1)N1CC1 [Thio-tepa] | Additivity (0.7 to 1.3) | – | – | Synergy (0 to 0.7) | Synergy (0 to 0.7) | Additivity (0.7 to 1.3) | Additivity (key: Inconclusive: Any; Additivity: 0.7 to 1.3; Synergy: 0 to 0.7; Subadditivity: 1.3 to 2; Antagonism: >2) | – |
| COc1cc([C@@H]2c3cc4c(cc3[C@@H](O[C@@H]3O[C@@H]5CO[C@@H](c6cccs6)O[C@H]5[C@H](O)[C@H]3O)[C@H]3COC(=O)[C@H]23)OCO4)cc(OC)c1O [Teniposide] | Synergy (0 to 0.7) | Synergy (0 to 0.7) | Synergy (0 to 0.7) | Synergy (0 to 0.7) | Synergy (0 to 0.7) | Synergy (0 to 0.7) | – | – |
| Cc1cc2c(C(C)C)c(O)c(O)c(C=O)c2c(O)c1-c1c(C)cc2c(C(C)C)c(O)c(O)c(C=O)c2c1O [AT101] | – | – | – | – | – | – | Additivity (key: Inconclusive: Any; Additivity: 0.7 to 1.3; Synergy: 0 to 0.7; Subadditivity: 1.3 to 2; Antagonism: >2) | Call, anti-proliferative effect of combination with Compound 1, H460 [2]: Additivity (key: Inconclusive: Any; Additivity: 0.7 to 1.3; Synergy: 0 to 0.7; Subadditivity: 1.3 to 2; Antagonism: >2); Call, anti-proliferative effect of combination with Compound 1, COLO205 [3]: Additivity (key: Inconclusive: Any; Additivity: 0.7 to 1.3; Synergy: 0 to 0.7; Subadditivity: 1.3 to 2; Antagonism: >2); Call, anti-proliferative effect of combination with Compound 1, HCT116 [5]: Additivity (key: Inconclusive: Any; Additivity: 0.7 to 1.3; Synergy: 0 to 0.7; Subadditivity: 1.3 to 2; Antagonism: >2); Call, anti-proliferative effect of combination with Compound 1, SW620 [6]: Additivity (key: Inconclusive: Any; Additivity: 0.7 to 1.3; Synergy: 0 to 0.7; Subadditivity: 1.3 to 2; Antagonism: >2) |
| COC1=CC(c2cc3ccccc3[nH]2)=N/C1=C\c1[nH]c(C)cc1C [Obatoclax] | – | – | – | – | – | – | – | Call, anti-proliferative effect of combination with Compound 1, SW48 [1, 9]: Additivity (0.7 to 1.3); Call, anti-proliferative effect of combination with Compound 1, H460 [2, 9]: Synergy (0 to 0.7); Call, anti-proliferative effect of combination with Compound 1, COLO205 [3, 9]: Additivity (0.7 to 1.3); Call, anti-proliferative effect of combination with Compound 1, A549 [4, 9]: Additivity (0.7 to 1.3); Call, anti-proliferative effect of combination with Compound 1, HCT116 [5, 9]: Additivity (0.7 to 1.3); Call, anti-proliferative effect of combination with Compound 1, SW620 [6, 9]: Synergy (0 to 0.7) |
| CO[C@@]12[C@H](COC(N)=O)C3=C(C(=O)C(C)=C(N)C3=O)N1C[C@@H]1N[C@@H]12 [Mitomycin C] | Synergy (0 to 0.7) | Subadditivity (1.3 to 2) | Synergy (0 to 0.7) | Synergy (0 to 0.7) | Synergy (0 to 0.7) | Synergy (0 to 0.7) | – | – |
| COc1cccc2c1C(=O)c1c(O)c3c(c(O)c1C2=O)C[C@@](O)(C(C)=O)C[C@@H]3O[C@H]1C[C@H](N)[C@H](O)[C@H](C)O1 [Daunorubicin] | – | – | – | – | – | – | Additivity (key: Inconclusive: Any; Additivity: 0.7 to 1.3; Synergy: 0 to 0.7; Subadditivity: 1.3 to 2; Antagonism: >2) | Call, anti-proliferative effect of combination with Compound 1, SW48 [1]: Additivity (key: Inconclusive: Any; Additivity: 0.7 to 1.3; Synergy: 0 to 0.7; Subadditivity: 1.3 to 2; Antagonism: >2); Call, anti-proliferative effect of combination with Compound 1, H460 [2]: Additivity (key: Inconclusive: Any; Additivity: 0.7 to 1.3; Synergy: 0 to 0.7; Subadditivity: 1.3 to 2; Antagonism: >2); Call, anti-proliferative effect of combination with Compound 1, COLO205 [3]: Additivity (key: Inconclusive: Any; Additivity: 0.7 to 1.3; Synergy: 0 to 0.7; Subadditivity: 1.3 to 2; Antagonism: >2); Call, anti-proliferative effect of combination with Compound 1, HCT116 [5]: Synergy (key: Inconclusive: Any; Additivity: 0.7 to 1.3; Synergy: 0 to 0.7; Subadditivity: 1.3 to 2; Antagonism: >2); Call, anti-proliferative effect of combination with Compound 1, SW620 [6]: Synergy (key: Inconclusive: Any; Additivity: 0.7 to 1.3; Synergy: 0 to 0.7; Subadditivity: 1.3 to 2; Antagonism: >2) |
